# From patent US10758534B2 (Vertex Pharmaceuticals Incorporated, priority 2014, dated 2020)
# Target: T1, F508del (Homo sapiens, UniProt P13569, DEL508-508)
# T1 construct: expressed in transfected cells
# Test: Protocol 2: FRET membrane potential optical assay (VIPR), identification of correction compounds
# Format: cell-based
# Conditions: F508del CFTR modulator activity; compounds of Table 1; read-out: EC30
# How it was run: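 NIH3T3 mouse fibroblasts stably expressing F508del were treated with test compound for 16 hrs at 37° C. in serum-free medium; 27° C. incubation served as positive control. F508del was activated with 10 μM forskolin plus 20 μM genistein in Cl^−-free medium, and Cl^− efflux-driven depolarization was read by DiSBAC2(3)/CC2-DMPE FRET.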
# T1 sequence (P13569 with tags, fused parts or gaps DEL508-508): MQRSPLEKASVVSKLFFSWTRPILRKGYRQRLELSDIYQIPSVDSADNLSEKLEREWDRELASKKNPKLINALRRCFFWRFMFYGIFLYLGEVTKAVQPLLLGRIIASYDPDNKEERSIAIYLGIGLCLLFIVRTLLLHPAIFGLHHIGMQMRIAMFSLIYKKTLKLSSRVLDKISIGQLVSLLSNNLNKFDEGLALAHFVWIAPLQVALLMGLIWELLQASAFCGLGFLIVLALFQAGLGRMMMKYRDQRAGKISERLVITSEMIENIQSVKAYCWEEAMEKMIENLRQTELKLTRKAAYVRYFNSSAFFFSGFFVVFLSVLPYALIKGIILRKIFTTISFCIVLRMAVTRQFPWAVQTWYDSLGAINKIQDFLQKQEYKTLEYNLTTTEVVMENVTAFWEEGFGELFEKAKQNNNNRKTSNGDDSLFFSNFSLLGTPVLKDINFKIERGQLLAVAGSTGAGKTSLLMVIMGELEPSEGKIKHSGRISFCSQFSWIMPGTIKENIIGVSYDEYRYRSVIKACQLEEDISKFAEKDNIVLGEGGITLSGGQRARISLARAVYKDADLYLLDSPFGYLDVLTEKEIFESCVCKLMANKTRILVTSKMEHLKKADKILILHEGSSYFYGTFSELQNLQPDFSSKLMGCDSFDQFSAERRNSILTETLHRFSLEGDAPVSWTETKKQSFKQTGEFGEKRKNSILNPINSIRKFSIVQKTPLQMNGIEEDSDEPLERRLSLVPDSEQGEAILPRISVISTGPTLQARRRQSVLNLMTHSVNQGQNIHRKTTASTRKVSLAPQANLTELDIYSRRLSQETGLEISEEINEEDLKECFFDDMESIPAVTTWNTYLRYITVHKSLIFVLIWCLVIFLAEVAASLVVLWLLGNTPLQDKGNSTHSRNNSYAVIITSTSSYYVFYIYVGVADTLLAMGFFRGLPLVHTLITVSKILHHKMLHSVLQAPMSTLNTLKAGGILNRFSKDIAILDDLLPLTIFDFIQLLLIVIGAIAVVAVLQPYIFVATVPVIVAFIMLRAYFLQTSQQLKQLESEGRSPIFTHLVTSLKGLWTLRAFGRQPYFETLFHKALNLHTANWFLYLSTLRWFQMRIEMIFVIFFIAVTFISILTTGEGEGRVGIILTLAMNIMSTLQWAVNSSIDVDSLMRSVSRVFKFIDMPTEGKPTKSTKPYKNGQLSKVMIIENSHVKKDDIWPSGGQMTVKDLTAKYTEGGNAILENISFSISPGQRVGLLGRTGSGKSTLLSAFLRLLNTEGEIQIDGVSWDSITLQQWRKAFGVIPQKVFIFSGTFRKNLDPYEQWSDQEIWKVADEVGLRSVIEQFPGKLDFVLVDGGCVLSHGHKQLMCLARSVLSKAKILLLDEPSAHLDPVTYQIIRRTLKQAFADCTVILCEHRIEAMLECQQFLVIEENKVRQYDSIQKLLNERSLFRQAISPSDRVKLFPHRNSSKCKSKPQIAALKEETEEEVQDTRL
row,Structure (SMILES),EC30
1,"COc1cc(F)c(-c2ccc(C(=O)NS(=O)(=O)c3cccnc3N)c(N3C[C@@H](C)CC3(C)C)n2)cc1F [Compound 2388, N-[(2-amino-3-pyridyl)sulfonyl]-6-(2,5-difluoro-4-methoxy-phenyl)-2-[(4S)-2,2,4-trimethylpyrrolidin-1-yl]pyridine-3-carboxamide]",< 3 µM
2,"Cc1cc(OCC(C)C)cc(-c2cnc(N3CC(C)CC3(C)C)c(C(=O)NS(=O)(=O)c3cccc(N)n3)c2)c1 (stereo not drawn) [Compound 2558, N-[(6-amino-2-pyridyl)sulfonyl]-5-(3-isobutoxy-5-methyl-phenyl)-2-(2,2,4-trimethylpyrrolidin-1-yl)pyridine-3-carboxamide]",< 3 µM
3,"CC1CN(c2ncccc2C(=O)NS(=O)(=O)c2cccc(N[C@H](C)C(C)C)n2)C(C)(C)C1 (stereo partly drawn) [Compound 2318, N—[[6-[[(1R)-1,2-dimethylpropyl]amino]-2-pyridyl]sulfonyl]-2-(2,2,4-trimethylpyrrolidin-1-yl)pyridine-3-carboxamide]",< 3 µM
4,"COc1cc(-c2ccc(C(=O)NS(=O)(=O)c3cccnc3N)c(N3C[C@@H](C)CC3(C)C)n2)ccc1F [Compound 2124, N-[(2-amino-3-pyridyl)sulfonyl]-6-(4-fluoro-3-methoxy-phenyl)-2-[(4S)-2,2,4-trimethylpyrrolidin-1-yl]pyridine-3-carboxamide]",< 3 µM
5,"Cc1ccccc1-c1ccc(C(=O)NS(=O)(=O)c2ccc[nH]c2=O)c(N2C[C@@H](C)CC2(C)C)n1 [Compound 2176, 6-(o-tolyl)-N-[(2-oxo-1H-pyridin-3-yl)sulfonyl]-2-[(4S)-2,2,4-trimethylpyrrolidin-1-yl]pyridine-3-carboxamide]",< 3 µM
6,"C[C@@H]1CN(c2nc(-c3cccc4c3OCC4)ccc2C(=O)NS(=O)(=O)c2ccc[nH]c2=O)C(C)(C)C1 [Compound 2583, 6-(2,3-dihydrobenzofuran-7-yl)-N-[(2-oxo-1H-pyridin-3-yl)sulfonyl]-2-[(4S)-2,2,4-trimethylpyrrolidin-1-yl]pyridine-3-carboxamide]",3 to 10 µM
7,"CC1CCN(c2cccc(S(=O)(=O)NC(=O)c3cccnc3N3CC(C)CC3(C)C)n2)C1 (stereo not drawn) [Compound 2116, N—[[6-(3-methylpyrrolidin-1-yl)-2-pyridyl]sulfonyl]-2-(2,2,4-trimethylpyrrolidin-1-yl)pyridine-3-carboxamide]",< 3 µM
8,"CC(C)COc1cc(F)cc(-c2ccc(C(=O)NS(=O)(=O)N3CC4CCC(C3)N4)c(N3C[C@@H](C)CC3(C)C)n2)c1 [Compound 2237, N-(3,8-diazabicyclo[3.2.1]octan-3-ylsulfonyl)-6-(3-fluoro-5-isobutoxy-phenyl)-2-[(4S)-2,2,4-trimethylpyrrolidin-1-yl]pyridine-3-carboxamide]",< 3 µM
9,"CC1CN(c2ncccc2C(=O)NS(=O)(=O)c2cccc(N3CCC4CCCCC4C3)n2)C(C)(C)C1 (stereo not drawn) [Compound 2011, N—[[6-(3,4,4a,5,6,7,8,8a-octahydro-1H-isoquinolin-2-yl)-2-pyridyl]sulfonyl]-2-(2,2,4-trimethylpyrrolidin-1-yl)pyridine-3-carboxamide]",< 3 µM
10,"CC(C)COc1cc(F)cc(-c2ccc(C(=O)NS(=O)(=O)C3CCNC3)c(N3C[C@@H](C)CC3(C)C)n2)c1 (stereo partly drawn) [Compound 2042, 6-(3-fluoro-5-isobutoxy-phenyl)-N-pyrrolidin-3-ylsulfonyl-2-[(4S)-2,2,4-trimethylpyrrolidin-1-yl]pyridine-3-carboxamide]",< 3 µM
11,"CC1CN(c2ncccc2C(=O)NS(=O)(=O)c2cccc(OCc3cccc(F)c3)n2)C(C)(C)C1 (stereo not drawn) [Compound 2409, N—[[6-[(3-fluorophenyl)methoxy]-2-pyridyl]sulfonyl]-2-(2,2,4-trimethylpyrrolidin-1-yl)pyridine-3-carboxamide]",< 3 µM
12,"CC1CN(c2ncccc2C(=O)NS(=O)(=O)c2cccc(OCC(C)(C)n3cccc3)n2)C(C)(C)C1 (stereo not drawn) [Compound 2137, N—[[6-(2-methyl-2-pyrrol-1-yl-propoxy)-2-pyridyl]sulfonyl]-2-(2,2,4-trimethylpyrrolidin-1-yl)pyridine-3-carboxamide]",< 3 µM
13,"COc1cccc(F)c1-c1ccc(C(=O)NS(=O)(=O)c2ccc[nH]c2=O)c(N2C[C@@H](C)CC2(C)C)n1 [Compound 2422, 6-(2-fluoro-6-methoxy-phenyl)-N-[(2-oxo-1H-pyridin-3-yl)sulfonyl]-2-[(4S)-2,2,4-trimethylpyrrolidin-1-yl]pyridine-3-carboxamide]",3 to 10 µM
14,"CC(C)COc1cc(F)cc(-c2ccc(C(=O)NS(=O)(=O)C3CCCC3)c(N3C[C@@H](C)CC3(C)C)n2)c1 [Compound 2113, N-cyclopentylsulfonyl-6-(3-fluoro-5-isobutoxy-phenyl)-2-[(4S)-2,2,4-trimethylpyrrolidin-1-yl]pyridine-3-carboxamide]",< 3 µM
15,"C[C@@H]1CN(c2nc(-c3cccc(F)c3)ccc2C(=O)NS(=O)(=O)N2CC[C@H](N)C2)C(C)(C)C1 [Compound 2414, N-[(3S)-3-aminopyrrolidin-1-yl]sulfonyl-6-(3-fluorophenyl)-2-[(4S)-2,2,4-trimethylpyrrolidin-1-yl]pyridine-3-carboxamide]",3 to 10 µM

# Same assay, conditions: Table 3; compounds of Table 1 as modulators of CFTR activity; protocol not stated
row,Structure (SMILES),EC30
1,"Cc1cc(C)c(Cn2c(C(=O)NS(=O)(=O)c3cccc(N)c3)cc3cc(C)ccc32)c(C)c1 [Compound 259, N-(3-aminophenyl)sulfonyl-5-methyl-1-[(2,4,6-trimethylphenyl)methyl]indole-2-carboxamide]",+++ (“+++” means <3 uM)
2,"CC(C)Oc1ccc(-c2ccc(C(=O)NS(=O)(=O)c3cccc(N)n3)c(N3C(C)CC(c4ccccc4)C3C)n2)cn1 (stereo not drawn) [Compound 601, N-[(6-amino-2-pyridyl)sulfonyl]-2-(2,5-dimethyl-3-phenyl-pyrrolidin-1-yl)-6-(6-isopropoxy-3-pyridyl)pyridine-3-carboxamide]",+++ (“+++” means <3 uM)
3,"CC(C)COc1cc(F)cc(-c2ccc(C(=O)NS(=O)(=O)c3ccn[nH]3)c(N3CCC4(CC3)OCc3ccccc34)n2)c1 [Compound 506, 6-(3-fluoro-5-isobutoxy-phenyl)-N-(1H-pyrazol-5-ylsulfonyl)-2-spiro[1H-isobenzofuran-3,4′-piperidine]-1′-yl-pyridine-3-carboxamide]",+++ (“+++” means <3 uM)
4,"COc1cccc(S(=O)(=O)NC(=O)c2ccc(C(C)(C)C)nc2Oc2c(C)cc(C)cc2C)n1 [Compound 34, 6-tert-butyl-N-[(6-methoxy-2-pyridyl)sulfonyl]-2-(2,4,6-trimethylphenoxy)pyridine-3-carboxamide]",+++ (“+++” means <3 uM)
5,"CC(C)COc1ccc(F)c(-c2ccc(C(=O)NS(=O)(=O)c3ccc[nH]c3=O)c(N3[C@H](C)CC[C@@H]3C)n2)c1 [Compound 721, 2-[(2S,5R)-2,5-dimethylpyrrolidin-1-yl]-6-(2-fluoro-5-isobutoxy-phenyl)-N-[(2-oxo-1H-pyridin-3-yl)sulfonyl]pyridine-3-carboxamide]",++ (“++” means between 3 uM and 10 uM)
6,"CCC(CC)Oc1cccc(-c2ccc(C(=O)NS(=O)(=O)c3cccc(N)n3)c(N3CC(C)CC3(C)C)n2)n1 (stereo not drawn) [Compound 580, N-[(6-amino-2-pyridyl)sulfonyl]-6-[6-(1-ethylpropoxy)-2-pyridyl]-2-(2,2,4-trimethylpyrrolidin-1-yl)pyridine-3-carboxamide]",+++ (“+++” means <3 uM)
